According to article PMC2206373, “Identification of an altered peptide ligand based on the endogenously presented, rheumatoid arthritis-associated, human cartilage glycoprotein-39(263–275) epitope: an MHC anchor variant peptide for immune modulation” (Arthritis Research & Therapy, 2007):
No end group written: not given here.

Tests used:
[1] = tested on: T cell hybridoma 14G11; experiment: T hybridoma 14G11 IL-2 response; assay type: cell-based, mouse; conditions: for Hybridoma response (SI) 14G11: IL-2 by ELISA after 48 h, peptide 10 μg/ml, SI > 2 positive
Method: The T cell hybridomas, provided by G Sonderstrup (Stanford, CA, USA), were generated as described. In brief, human CD4, HLA-DRA*101/HLA-DRB*0401 triple transgenic (HLA-DR4trg) mice (devoid of I-Aβ) were immunized in the footpad with 50 μg of purified HC gp-39 mixed in incomplete Freund's adjuvant (IFA). Draining lymph nodes were isolated and T-cell hybridomas were generated by polyethylene glycol fusion of primed and in vitro antigen-restimulated lymph node cells with the AKR BW5147 fusion partner. Following fusion, growth-positive hybridoma wells were screened for reactivity to HC gp-39 and a set of 55 peptides (16 amino acids in length) covering the entire HC gp-39 sequence. HLA-DR4(B1*0401)-restricted hybridomas responsive to both the HC gp-39 protein and the immunodominant epitope 263–275 of HC gp-39 (for example, 5G11, 8B12, 14G11 and 20H5) were cloned, subcloned, characterised and selected for further study.
HC gp-39-specific IL-2 production by T hybridomas was measured in wells of round-bottomed microtiter plates. Hybridoma cells (2 to 5 × 10^4) and irradiated APC (0.5 to 1 × 10^5; 12,000 to 16,000 RAD) from the B lymphoblastoid cell line (BLCL) carrying the DRB1*0401 specificity were incubated in 150 μl volumes. Antigen was added in 50 μl volumes to duplicate wells. After 48 h, 100 μl of the culture supernatant was assayed for IL-2 production using a sandwich ELISA with Pharmingen antibodies specific for mouse IL-2. The antigen sensitivity of the hybridomas to both peptide and protein was determined (Figure 2). […] In later assays, an excess of peptide or APL (10 μg/ml), inducing maximal responses in all hybridomas, was tested.

[2] = tested on: popliteal lymph node cells from F265(Dip)-immunized HLA-DR4trg mice; experiment: Antigen-specific cytokine production of popliteal lymph node cells from F265(Dip)-immunized mice; assay type: cell-based, mouse; conditions: Figure 4b
Method: Mice, obtained from L Fugger (Oxford, UK), were immunized in the hind footpads with 2 × 50 μg of purified recombinant HC gp-39, with 2 × 100 μg of the WT peptide or with 2 × 100 μg of the APL (F265(Dip); compound 28; Figure 1) mixed in IFA. Seven days later, popliteal lymph node cell suspensions (1 to 2 × 10^5 cells/well) were stimulated in vitro with HC gp-39 (50, 10 or 2 μg/ml), HC gp-39(263–275) or APL (10, 2 and 0.4 μg/ml). At 96 h, 50 μl of culture medium was harvested for analysis of antigen-specific cytokine production using Luminex technology (mouse cytokine 18 Plex Panel, catalogue no. 171-F11181, Biorad, Bio-Rad Laboratories, Hercules, CA, USA). In addition, cultures were labelled with tritiated thymidine (for 18 h) and antigen-specific proliferation was determined. We state that all animal experimentation received ethics approval and animals were treated according to the recognized guidelines.

Sequence: RSFTLASSETGVG [Compound 1, HC gp-39(263–275)]
- T hybridoma (SI) 14G11 ([1]; Figure 1, IL-2 production, DRB1*0401 BLCL as APC, duplicate or triplicate, background 7,152 counts, ±30% of WT response = super/partial agonist): 35 SI
- Peptide concentration for half maximal stimulation (IL-2), 14G11 ([1]; Figure 2a dose response, IL-2 ELISA after 48 h): 0.26 µg/mL
- Hybridoma response (SI) 14G11 ([1]; Table 1, DRB1*0401 BLCL as APC, background 8,598 counts, representative of at least three experiments): 15 SI
- Hybridoma response (SI) 14G11 ([1]; Table 2, DRB1*0401 BLCL as APC, background 10,131 counts, SD not above 15%): 30 SI
- In vitro recall IFNγ production in words [2]: failed to induce significant levels
- In vitro recall Mip1α production in words [2]: failed to induce significant levels
- In vitro recall RANTES production in words [2]: failed to induce significant levels
